Laboratory results as given in ChEMBL document CHEMBL1201862, “PubChem BioAssay data set” (2004).
“And” between values parts separate entries of the source, which are not always exact repeats. Equal values may be shown once.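 Dose response: 5 concentrations. Exposure: 48 h. Format: 96-well plates. Endpoint: linear interpolation; highest concentration if not reached. At the GI50, growth is halved.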 The source made the active and inactive calls. No stated cut-off is given here; in the data, active = GI50 up to about 1.1 µM and inactive = higher.

Legend:
Experiment in all cases: NCI anticancer screen, dose series, 48 h
HCT-116 = tested on: HCT-116
RPMI-8226 = tested on: RPMI-8226
EKVX = tested on: EKVX
UACC-257 = tested on: UACC-257
TK-10 = tested on: TK-10
NCI/ADR-RES = tested on: NCI/ADR-RES
MDA-N = tested on: MDA-N
A498 = tested on: A498
UO-31 = tested on: UO-31
SK-MEL-28 = tested on: SK-MEL-28
HOP-92 = tested on: HOP-92
MDA-MB-435 = tested on: MDA-MB-435
NCI-H522 = tested on: NCI-H522
SW-620 = tested on: SW-620
ACHN = tested on: ACHN
OVCAR-4 = tested on: OVCAR-4
SF-539 = tested on: SF-539
KM12 = tested on: KM12
HL-60 = tested on: HL-60
CAKI-1 = tested on: CAKI-1

Structure (SMILES)	GI50 (HCT-116)	GI50 (RPMI-8226)	GI50 (EKVX)	GI50 (UACC-257)	GI50 (TK-10)	GI50 (NCI/ADR-RES)	GI50 (MDA-N)	GI50 (A498)	GI50 (UO-31)	GI50 (SK-MEL-28)	GI50 (HOP-92)	GI50 (MDA-MB-435)	GI50 (NCI-H522)	GI50 (SW-620)	GI50 (ACHN)	GI50 (OVCAR-4)	GI50 (SF-539)	GI50 (KM12)	GI50 (HL-60)	GI50 (CAKI-1)
CC(C)N1CCN(c2ccncc2S(=O)(=O)N2CCCCC2)CC1	> 100 µM (inactive)	> 100 µM (inactive)	> 100 µM (inactive)	> 100 µM (inactive)	> 100 µM (inactive)	> 100 µM (inactive)	> 100 µM (inactive)	> 100 µM (inactive)	> 100 µM (inactive)	> 100 µM (inactive)	> 100 µM (inactive)	> 100 µM (inactive)	> 100 µM (inactive)	> 100 µM (inactive)	> 100 µM (inactive)	> 100 µM (inactive)	> 100 µM (inactive)	> 100 µM (inactive)	> 100 µM (inactive)	> 100 µM (inactive)
O=S1(=O)CCN(c2ccccc2CC(c2c[nH]c3ccccc23)c2c[nH]c3ccccc23)CC1	4.47 µM (inactive)	1.75 µM (inactive)	8.49 µM (inactive)	5.15 µM (inactive)	5.32 µM (inactive)	6.62 µM (inactive)	3.92 µM (inactive)	10 µM (inactive)	7.41 µM (inactive)	8.73 µM (inactive)	5.37 µM (inactive)	5.62 µM (inactive)	4.49 µM (inactive)	3.92 µM (inactive)	5.04 µM (inactive)	7.91 µM (inactive)	11.9 µM (inactive)	3.9 µM (inactive)	1.12 µM (active)	9.16 µM (inactive)
Nc1ccn(C2OC(COC(=O)C34CC5CC(CC(C5)C3)C4)C(O)C2O)c(=O)n1 (centres undefined)	2.75 µM (inactive)	> 100 µM (inactive)	> 100 µM (inactive)	> 100 µM (inactive)	> 100 µM (inactive)	> 100 µM (inactive)	> 100 µM (inactive)	> 45.5 µM (inactive)	> 40.5 µM (inactive)	52.4 µM (inactive)	> 100 µM (inactive)	> 100 µM (inactive)	10.7 µM (inactive)	> 100 µM (inactive)	1.77 µM (inactive)	> 100 µM (inactive)	> 100 µM (inactive)	> 100 µM (inactive)	0.622 µM (active)	> 100 µM (inactive)
O=c1[nH]cc(/C=N\Nc2ccccc2)c(=O)[nH]1	> 100 µM (inactive)	> 100 µM (inactive)	> 100 µM (inactive)	> 100 µM (inactive)	> 100 µM (inactive)	> 100 µM (inactive)	> 100 µM (inactive)	> 100 µM (inactive)	> 100 µM (inactive)	> 100 µM (inactive)	> 100 µM (inactive)	> 100 µM (inactive)	> 100 µM (inactive)	> 100 µM (inactive)	68.9 µM (inactive)	> 100 µM (inactive)	> 100 µM (inactive)	> 100 µM (inactive)	5.78 µM (inactive)	> 100 µM (inactive)
COc1ccc2[nH]c3c(C)c4ccnc(NCCCN(C)CCCNc5ccc6ncn7c8ccccc8c(=O)c5c67)c4c(C)c3c2c1	0.0767 µM (active)	0.13 µM (active)	0.94 µM (active)	0.723 µM (active)	0.22 µM (active)	0.664 µM (active)	0.411 µM (active)	1.11 µM (active)	0.361 µM (active)	0.671 µM (active)	1.68 µM (inactive)	0.713 µM (active)	0.0524 µM (active)	0.0418 µM (active)	0.0598 µM (active)	0.106 µM (active)	0.132 µM (active)	0.478 µM (active)	0.08 µM (active)	0.242 µM (active)
C=C1C(=O)OC2CC1C(OC(C)=O)C/C(C)=C/CC/C(C)=C\CCC2(C)O (centres undefined)	2.08 µM (inactive) and 2.91 µM (inactive)	1.9 µM (inactive) and 1.82 µM (inactive)	3.81 µM (inactive) and 3.73 µM (inactive)	3.03 µM (inactive) and 5.11 µM (inactive)	4.37 µM (inactive) and 3.66 µM (inactive)	3.66 µM (inactive) and 3.49 µM (inactive)	2.92 µM (inactive) and 4.09 µM (inactive)	5.22 µM (inactive) and 5.52 µM (inactive)	3.24 µM (inactive) and 6.12 µM (inactive)	3.19 µM (inactive) and 2.95 µM (inactive)	3.65 µM (inactive) and 2.89 µM (inactive)	4.19 µM (inactive) and 4.68 µM (inactive)	1.44 µM (inactive) and 1.36 µM (inactive)	2.64 µM (inactive) and 3.4 µM (inactive)	4.23 µM (inactive) and 2.37 µM (inactive)	6.35 µM (inactive) and 5.73 µM (inactive)	3.48 µM (inactive) and 5.43 µM (inactive)	–	1.23 µM (inactive) and 655 nM (active)	4.34 µM (inactive) and 2.96 µM (inactive)
S=C1/C(=N/c2ccccc2)N(c2ccccc2)/C(=N\c2ccccn2)N1c1ccccc1	14.2 µM (inactive)	6.78 µM (inactive)	13.5 µM (inactive)	14.3 µM (inactive)	15.5 µM (inactive)	16.7 µM (inactive)	6.3 µM (inactive)	14.5 µM (inactive)	13.3 µM (inactive)	16.8 µM (inactive)	13 µM (inactive)	15.2 µM (inactive)	1.63 µM (inactive)	14 µM (inactive)	4.32 µM (inactive)	14.6 µM (inactive)	< 0.01 µM (active)	12.9 µM (inactive)	> 100 µM (inactive)	15.5 µM (inactive)
CC1(C)Oc2ccccc2OC1O (centres undefined)	> 100 µM (inactive)	> 100 µM (inactive)	> 100 µM (inactive)	> 100 µM (inactive)	> 100 µM (inactive)	> 100 µM (inactive)	> 100 µM (inactive)	> 100 µM (inactive)	> 100 µM (inactive)	> 100 µM (inactive)	> 100 µM (inactive)	> 100 µM (inactive)	> 100 µM (inactive)	> 100 µM (inactive)	> 100 µM (inactive)	> 100 µM (inactive)	> 100 µM (inactive)	> 100 µM (inactive)	> 100 µM (inactive)	> 100 µM (inactive)
Cc1ccc(S(=O)(=O)NN=C2CCCCCCCCCCC2)cc1	> 100 µM (inactive)	> 100 µM (inactive)	> 100 µM (inactive)	> 100 µM (inactive)	> 100 µM (inactive)	> 100 µM (inactive)	> 100 µM (inactive)	> 100 µM (inactive)	> 100 µM (inactive)	> 100 µM (inactive)	> 100 µM (inactive)	> 100 µM (inactive)	> 100 µM (inactive)	> 100 µM (inactive)	> 100 µM (inactive)	> 100 µM (inactive)	> 100 µM (inactive)	> 100 µM (inactive)	> 100 µM (inactive)	> 100 µM (inactive)
c1cc2n(n1)CCN2	1950 µM (inactive)	1890 µM (inactive)	1770 µM (inactive)	5980 µM (inactive)	> 1490 µM (inactive)	561 µM (inactive)	4680 µM (inactive)	1150 µM (inactive)	1320 µM (inactive)	7740 µM (inactive)	1590 µM (inactive)	3940 µM (inactive)	2300 µM (inactive)	3430 µM (inactive)	151 µM (inactive)	5550 µM (inactive)	646 µM (inactive)	1810 µM (inactive)	238 µM (inactive)	740 µM (inactive)
CC(Br)C(=O)NC(CO)C(=O)O (centres undefined)	> 100 µM (inactive)	> 100 µM (inactive)	> 100 µM (inactive)	> 100 µM (inactive)	> 100 µM (inactive)	> 100 µM (inactive)	> 100 µM (inactive)	> 100 µM (inactive)	> 100 µM (inactive)	> 100 µM (inactive)	> 100 µM (inactive)	> 100 µM (inactive)	> 100 µM (inactive)	> 100 µM (inactive)	> 100 µM (inactive)	> 100 µM (inactive)	> 100 µM (inactive)	> 100 µM (inactive)	> 100 µM (inactive)	> 100 µM (inactive)
O=C(NO)c1cccc(OCc2ccc(Br)cc2)c1	4.35 µM (inactive)	2.74 µM (inactive)	5.9 µM (inactive)	10.5 µM (inactive)	10.5 µM (inactive)	2.93 µM (inactive)	9.02 µM (inactive)	8.93 µM (inactive)	2.77 µM (inactive)	14.2 µM (inactive)	7.8 µM (inactive)	5.73 µM (inactive)	1.41 µM (inactive)	6.55 µM (inactive)	3.03 µM (inactive)	5.24 µM (inactive)	4.72 µM (inactive)	5.4 µM (inactive)	3.01 µM (inactive)	3.11 µM (inactive)
COc1c2nc(CCl)n(C)c(=O)c2c(OC)c2c(=O)n(C)c(CCl)nc12	1.11 µM (active)	0.303 µM (active)	3.31 µM (inactive)	1.81 µM (inactive)	0.447 µM (active)	2.49 µM (inactive)	1.49 µM (inactive)	2.33 µM (inactive)	1.24 µM (inactive)	1.85 µM (inactive)	> 100 µM (inactive)	2.11 µM (inactive)	1.34 µM (inactive)	1.1 µM (active)	1.19 µM (inactive)	> 100 µM (inactive)	3.44 µM (inactive)	1.22 µM (inactive)	0.653 µM (active)	1.6 µM (inactive)
